Experimental data reported in patent US11964941B2, “5-Bromo-indirubins” (City of Hope, priority 2014, dated 2024).

Columns and labels:
MV4-11 AML cells = assay: MTS cell viability, MV4-11 AML cells (FLT3-ITD); assay type: cell-based, human; details: Homo sapiens, 48 h, read-out: IC50 for 50% inhibition of viability
Method: (§1) MTS assays were performed for cell viability. Human cancer cells were seeded in 96-well plates (2500 cells/well for solid tumors, 5000 cells/well for blood tumors), incubated overnight at 37 C in 5% CO2, and exposed to 5IN-1NH1 or 5IN-1NH1s in a dose-dependent manner for 48 h. See FIGS. 1A-1B, 2A-2B, 3, 4A-4B, and 6A-6B. Dimethyl sulfoxide (DMSO) was used as the vehicle control. Viable cell numbers were determined by tetrazolium conversion to its formazan dye and absorbance was measured at 490 nm using an automated ELISA plate reader. Each experiment was performed in quadruplicate. IC50 values were determined using CalcuSyn software (BIOSOFT®, Cambridge GB).
(§2) Compound (1289) inhibits viabilities of MV4-11 and MOLM13 AML cells that harbor an internal tandem duplication (ITD) mutation. MTS assays were performed for cell viability. Human MV4-11 and MOLM13 AML cells (5000/well) were seeded in 96-well plates, incubated overnight at 37° C. in 5% CO2, and exposed to compound (1289) in a dose-dependent manner for 48 h. Dimethyl sulfoxide (DMSO) was used as the vehicle control. Viable cell numbers were determined by tetrazolium conversion to its formazan dye and absorbance was measured at 490 nm using an automated ELISA plate reader. Each experiment was performed in quadruplicate. IC50 values were determined using CalcuSyn software.

MOLM13 AML cells = assay: MTS cell viability, MOLM13 AML cells (FLT3-ITD); assay type: cell-based, human; details: Homo sapiens, MOLM-13, 48 h, read-out: IC50 for 50% inhibition of viability
Method: as §1, §2

FLT3 = FLT3 (Homo sapiens, UniProt P36888); assay: In vitro kinase assay, recombinant FLT3; assay type: biochemical; details: recombinant FLT3, 33P-ATP, 120 min
Method: (§3) The kinase assays were performed with recombinant class III receptor tyrosine kinase family proteins. Briefly, proteins, freshly prepared substrates and ^33P-ATP (specific activity 0.01 μCi/μl final) were mixed in reaction buffer (20 mM HEPES pH 7.5, 10 mM MgCl2, 1 mM EGTA, 0.02% Brij35, 0.02 mg/ml BSA, 0.1 mM Na3VO4, 2 mM DTT) in the presence of DMSO as control or 5IN-1NH1s. The mixtures were reacted for 120 min at room temperature. Samples were transferred onto P81 ion exchange paper and filters were extensively washed with 0.75% phosphoric acid. The radioactivities were monitored. IC50 values were determined using GraphPad Prism software.
as §3, with “Kinase” for “The kinase”, “FLT3, mutated FLT3-ITD and D835I mutant FLT3 kinases.” for “class III receptor tyrosine kinase family proteins.”, “compound (1289).” for “5IN-1NH1s.”

FLT3 (D835Y) = FLT3 (D835Y) (Homo sapiens, UniProt P36888, D835Y); assay: In vitro kinase assay, recombinant FLT3 (D835Y); assay type: biochemical; details: 33P-ATP, 120 min
Method: as §3
as §3, with “Kinase” for “The kinase”, “FLT3, mutated FLT3-ITD and D835I mutant FLT3 kinases.” for “class III receptor tyrosine kinase family proteins.”, “compound (1289).” for “5IN-1NH1s.”

FLT3 (ITD) = FLT3 (ITD) (Homo sapiens, UniProt P36888); assay: In vitro kinase assay, recombinant FLT3 (ITD); assay type: biochemical; details: 33P-ATP, 120 min
Method: as §3
as §3, with “Kinase” for “The kinase”, “FLT3, mutated FLT3-ITD and D835I mutant FLT3 kinases.” for “class III receptor tyrosine kinase family proteins.”, “compound (1289).” for “5IN-1NH1s.”

c-KIT = c-KIT (Homo sapiens, UniProt P10721); assay: In vitro kinase assay, recombinant c-KIT; assay type: biochemical; details: 33P-ATP, 120 min
Method: (§4) Compound (1289) inhibits activities of FMS, PDGFR α, PDGFR β and c-KIT in vitro. The kinase assays were performed with recombinant FMS, PDGFR α, PDGFR β and c-KIT proteins. Briefly, proteins, freshly prepared substrates and ^33P-ATP (specific activity 0.01 μCi/μl final) were mixed in reaction buffer (20 mM HEPES pH 7.5, 10 mM MgCl2, 1 mM EGTA, 0.02% Brij35, 0.02 mg/ml BSA, 0.1 mM Na3VO4, 2 mM DTT) in the presence of DMSO as control or compound (1289). The mixtures were reacted for 120 min at room temperature. Samples were transferred onto P81 ion exchange paper and filters were extensively washed with 0.75% phosphoric acid. The radioactivities were monitored.
as §3

FMS = FMS (Homo sapiens, UniProt P07333); assay: In vitro kinase assay, recombinant FMS; assay type: biochemical; details: 33P-ATP, 120 min
Method: as §4, §3

PDGFR α = PDGFR α (Homo sapiens, UniProt P16234); assay: In vitro kinase assay, recombinant PDGFR α; assay type: biochemical; details: 33P-ATP, 120 min
Method: as §4, §3

PDGFR β = PDGFR β (Homo sapiens, UniProt P09619); assay: In vitro kinase assay, recombinant PDGFR β; assay type: biochemical; details: 33P-ATP, 120 min
Method: as §4, §3

STAT5 = assay: Western blot, phosphorylation of STAT5 in AML cells; assay type: cell-based, human; details: FLT-ITD mutated AML cells (MV4-11, MOLM13), 4h
Method: (§5) Western blot analyses were performed with specific antibodies. Briefly, human MV4-11 and MOLM13 AML cells were treated with compound (1289) in a dose-dependent manner for 4h. Whole-cell lysates (40 ug) were resolved by SDS-PAGE. Primary phospho-specific antibodies to p-Stat5 and […] were diluted in TBS (pH 7.5) with 5% (w/v) BSA and 0.1% (v/v) Tween-20 over night at 4° C. Primary specific antibodies to Stat5 and […] were diluted in PBS (pH 7.5) with 5% (w/v) nonfat milk and 0.1% (v/v) Tween-20 overnight at 4° C. Horseradish peroxidase-conjugated secondary antibodies were incubated in PBS (pH 7.5) with 5% (w/v) nonfat milk and 0.1% (v/v) Tween-20 for 1 h at room temperature. Positive immuno-reactive proteins were detected using the ECL system.

Erk1/2 = assay: Western blot, phosphorylation of Erk1/2 in AML cells; assay type: cell-based, human; details: FLT-ITD mutated AML cells (MV4-11, MOLM13), 4h
Method: as §5

MV4-11 AML SQ xenografts = MV4-11 AML SQ xenografts in vivo; set-up: species or system mouse; details: NSG mice, 25 mg/kg orally twice daily for 18 days
Method: Human MV4-11 AML cells (5×10^6) were resuspended in serum-free RPMI1640 medium and subcutaneously injected into the flank of 5-6 weeks old NOD/SCID/IL-2rg(ko) (NSG) female mouse. When palpable tumor sizes reached at approximately 100 mm^3, mice were randomly divided into two groups (vehicle=7, treatment=7). Then, compound (1289) was orally administered at 25 mg/kg with vehicle (10% DMSO+30% SOLUTOL®+60% Saline), twice daily for 18 days. Tumor volumes were calculated by the formula 1/2a×b^2, where a is the long diameter, and b is the short diameter. Tumor volumes correlate with tumor weights. The statistical significance of group differences was analyzed using a Student's t-test with the two-tailed distribution. P values less than 0.05 were considered statistically significant.

PDGFR β, sequence (P09619 33-1106, species assumed): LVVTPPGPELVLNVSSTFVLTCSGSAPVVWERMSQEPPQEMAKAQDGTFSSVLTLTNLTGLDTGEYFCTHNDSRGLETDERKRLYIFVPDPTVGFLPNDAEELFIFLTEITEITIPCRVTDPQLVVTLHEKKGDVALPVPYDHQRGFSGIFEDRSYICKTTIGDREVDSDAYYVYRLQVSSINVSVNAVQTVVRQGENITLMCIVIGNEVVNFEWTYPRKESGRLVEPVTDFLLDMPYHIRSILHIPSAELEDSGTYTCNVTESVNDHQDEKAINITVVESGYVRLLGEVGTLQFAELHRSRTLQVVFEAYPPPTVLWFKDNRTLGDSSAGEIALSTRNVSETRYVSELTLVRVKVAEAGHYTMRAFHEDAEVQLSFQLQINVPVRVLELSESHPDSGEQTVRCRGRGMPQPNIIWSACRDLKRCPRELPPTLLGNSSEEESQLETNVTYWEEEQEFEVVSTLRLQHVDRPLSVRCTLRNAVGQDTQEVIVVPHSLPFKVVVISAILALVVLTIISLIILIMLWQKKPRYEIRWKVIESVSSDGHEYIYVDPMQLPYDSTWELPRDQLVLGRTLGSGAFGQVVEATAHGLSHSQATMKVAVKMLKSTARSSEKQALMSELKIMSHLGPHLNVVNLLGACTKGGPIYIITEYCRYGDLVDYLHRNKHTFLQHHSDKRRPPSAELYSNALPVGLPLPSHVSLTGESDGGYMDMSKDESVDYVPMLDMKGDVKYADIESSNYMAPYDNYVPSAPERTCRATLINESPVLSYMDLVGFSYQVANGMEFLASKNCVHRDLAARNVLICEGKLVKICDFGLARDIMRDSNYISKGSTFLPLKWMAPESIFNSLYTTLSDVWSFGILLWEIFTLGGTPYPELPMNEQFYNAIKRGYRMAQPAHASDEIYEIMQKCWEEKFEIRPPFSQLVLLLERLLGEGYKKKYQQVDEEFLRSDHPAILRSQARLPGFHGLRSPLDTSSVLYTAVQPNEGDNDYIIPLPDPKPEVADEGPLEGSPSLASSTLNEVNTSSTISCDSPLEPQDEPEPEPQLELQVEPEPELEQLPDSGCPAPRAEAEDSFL
FMS, sequence (P07333 20-972, species assumed): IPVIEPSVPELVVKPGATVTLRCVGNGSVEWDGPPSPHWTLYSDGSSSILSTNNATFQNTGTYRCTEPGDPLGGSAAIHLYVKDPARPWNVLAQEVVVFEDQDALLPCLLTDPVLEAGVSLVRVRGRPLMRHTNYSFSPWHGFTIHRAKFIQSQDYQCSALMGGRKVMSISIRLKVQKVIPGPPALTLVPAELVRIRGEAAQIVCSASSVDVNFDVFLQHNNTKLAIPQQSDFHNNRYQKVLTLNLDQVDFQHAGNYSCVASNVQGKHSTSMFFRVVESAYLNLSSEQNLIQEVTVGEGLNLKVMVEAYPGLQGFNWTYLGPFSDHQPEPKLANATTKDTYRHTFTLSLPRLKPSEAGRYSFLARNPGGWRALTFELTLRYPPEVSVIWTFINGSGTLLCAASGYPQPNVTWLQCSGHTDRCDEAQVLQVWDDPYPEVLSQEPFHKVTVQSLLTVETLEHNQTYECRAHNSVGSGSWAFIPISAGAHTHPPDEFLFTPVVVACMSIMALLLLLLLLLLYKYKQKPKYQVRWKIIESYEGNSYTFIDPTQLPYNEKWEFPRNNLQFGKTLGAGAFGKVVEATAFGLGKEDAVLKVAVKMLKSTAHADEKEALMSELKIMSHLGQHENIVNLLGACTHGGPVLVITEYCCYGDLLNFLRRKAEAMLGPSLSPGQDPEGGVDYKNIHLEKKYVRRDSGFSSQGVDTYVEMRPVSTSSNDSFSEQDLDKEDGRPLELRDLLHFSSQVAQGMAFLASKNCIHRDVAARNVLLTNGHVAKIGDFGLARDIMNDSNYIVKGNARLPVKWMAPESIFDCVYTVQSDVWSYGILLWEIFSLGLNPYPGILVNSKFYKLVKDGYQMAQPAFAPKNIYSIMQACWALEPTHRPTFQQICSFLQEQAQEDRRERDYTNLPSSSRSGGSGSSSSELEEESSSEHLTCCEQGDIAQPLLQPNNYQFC
PDGFR α, sequence (P16234 24-1089, species assumed): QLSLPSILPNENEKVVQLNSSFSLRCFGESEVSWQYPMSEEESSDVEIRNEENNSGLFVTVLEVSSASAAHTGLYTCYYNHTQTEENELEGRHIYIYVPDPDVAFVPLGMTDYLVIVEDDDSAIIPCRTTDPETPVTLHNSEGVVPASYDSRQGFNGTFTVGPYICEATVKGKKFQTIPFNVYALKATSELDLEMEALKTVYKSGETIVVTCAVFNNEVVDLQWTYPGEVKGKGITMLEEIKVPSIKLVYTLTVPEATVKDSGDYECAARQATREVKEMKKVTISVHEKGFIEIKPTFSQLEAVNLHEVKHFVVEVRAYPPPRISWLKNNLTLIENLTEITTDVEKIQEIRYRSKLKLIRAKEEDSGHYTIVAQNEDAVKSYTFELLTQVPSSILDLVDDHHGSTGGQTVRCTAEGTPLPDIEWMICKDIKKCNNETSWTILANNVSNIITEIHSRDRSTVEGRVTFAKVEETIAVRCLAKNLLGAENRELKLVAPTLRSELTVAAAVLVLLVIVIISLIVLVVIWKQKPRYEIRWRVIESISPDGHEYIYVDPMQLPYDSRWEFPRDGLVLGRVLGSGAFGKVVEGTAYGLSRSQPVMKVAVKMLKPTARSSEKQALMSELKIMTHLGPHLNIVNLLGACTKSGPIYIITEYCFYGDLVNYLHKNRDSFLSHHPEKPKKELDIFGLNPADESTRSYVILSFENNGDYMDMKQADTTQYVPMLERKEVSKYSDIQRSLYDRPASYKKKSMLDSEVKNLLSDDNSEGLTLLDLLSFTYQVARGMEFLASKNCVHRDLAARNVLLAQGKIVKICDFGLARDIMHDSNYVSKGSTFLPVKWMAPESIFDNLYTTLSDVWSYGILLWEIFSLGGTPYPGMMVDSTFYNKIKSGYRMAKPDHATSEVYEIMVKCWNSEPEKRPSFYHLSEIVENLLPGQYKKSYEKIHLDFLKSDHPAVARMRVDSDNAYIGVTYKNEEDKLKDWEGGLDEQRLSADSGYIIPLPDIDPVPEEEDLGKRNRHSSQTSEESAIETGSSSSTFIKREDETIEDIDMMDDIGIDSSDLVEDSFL
c-KIT, sequence (P10721 26-976): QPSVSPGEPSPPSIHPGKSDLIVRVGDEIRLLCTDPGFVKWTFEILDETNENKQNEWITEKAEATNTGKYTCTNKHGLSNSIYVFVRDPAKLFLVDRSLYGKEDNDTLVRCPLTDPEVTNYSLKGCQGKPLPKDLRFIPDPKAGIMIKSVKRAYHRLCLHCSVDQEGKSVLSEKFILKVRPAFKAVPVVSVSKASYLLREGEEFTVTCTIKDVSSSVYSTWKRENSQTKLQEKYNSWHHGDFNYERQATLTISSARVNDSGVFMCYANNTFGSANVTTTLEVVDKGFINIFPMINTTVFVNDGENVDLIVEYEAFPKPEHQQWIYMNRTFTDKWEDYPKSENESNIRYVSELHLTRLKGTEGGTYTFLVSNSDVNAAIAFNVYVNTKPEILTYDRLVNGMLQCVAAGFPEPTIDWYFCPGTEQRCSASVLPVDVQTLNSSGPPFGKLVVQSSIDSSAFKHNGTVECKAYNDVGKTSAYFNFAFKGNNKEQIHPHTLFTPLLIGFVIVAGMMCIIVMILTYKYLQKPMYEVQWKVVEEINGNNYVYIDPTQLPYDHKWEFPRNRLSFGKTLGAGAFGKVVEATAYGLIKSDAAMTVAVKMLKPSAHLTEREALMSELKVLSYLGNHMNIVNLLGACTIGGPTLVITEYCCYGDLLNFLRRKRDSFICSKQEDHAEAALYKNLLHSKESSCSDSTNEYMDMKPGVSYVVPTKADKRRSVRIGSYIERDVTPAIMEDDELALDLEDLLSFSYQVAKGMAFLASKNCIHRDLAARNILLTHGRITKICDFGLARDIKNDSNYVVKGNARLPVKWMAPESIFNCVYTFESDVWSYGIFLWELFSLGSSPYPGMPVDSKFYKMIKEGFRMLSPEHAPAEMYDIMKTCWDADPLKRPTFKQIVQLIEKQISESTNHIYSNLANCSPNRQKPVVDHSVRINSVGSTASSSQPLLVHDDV

IC50 (MV4-11 AML cells): 1.8 nM
IC50 (MOLM13 AML cells): 2.3 nM
IC50 (FLT3): 0.68 nM
IC50 (FLT3 (D835Y)): < 0.5 nM
IC50 (FLT3 (ITD)): 0.56 nM
IC50 (c-KIT): 47.7 nM
IC50 (FMS): 7.6 nM
IC50 (PDGFR α): 13.6 nM
IC50 (PDGFR β): 1.2 nM
Compound: O=C1Nc2ccc(Br)cc2C1=C1Nc2ccccc2C1=NOCCN1CCNCC1 [Compound (1289)]
phosphorylation of STAT5 (STAT5): blocked phosphorylation
phosphorylation of Erk1/2 (Erk1/2): blocked phosphorylation
efficacy in vivo on MV4-11 AML SQ xenografts (MV4-11 AML SQ xenografts): shows efficacy in vivo
